According to publication PMC2263054, “Functional evolution of the vitamin D and pregnane X receptors” (BMC Evolutionary Biology, 2007):
Where a name gives a salt, the structure may show the parent alone. Read-outs that look alike come from different tables or passages of the source.

Columns and labels:
Format in all cases: cell-based
Xenopus laevis VDR = biological target: T1, Xenopus laevis VDR (Xenopus laevis, UniProt O13124); assay: luciferase reporter transactivation assay in HepG2-NTCP cells, GAL4/xlVDR LBD chimera with tk-UAS-Luc
T1 sequence (O13124 90-422): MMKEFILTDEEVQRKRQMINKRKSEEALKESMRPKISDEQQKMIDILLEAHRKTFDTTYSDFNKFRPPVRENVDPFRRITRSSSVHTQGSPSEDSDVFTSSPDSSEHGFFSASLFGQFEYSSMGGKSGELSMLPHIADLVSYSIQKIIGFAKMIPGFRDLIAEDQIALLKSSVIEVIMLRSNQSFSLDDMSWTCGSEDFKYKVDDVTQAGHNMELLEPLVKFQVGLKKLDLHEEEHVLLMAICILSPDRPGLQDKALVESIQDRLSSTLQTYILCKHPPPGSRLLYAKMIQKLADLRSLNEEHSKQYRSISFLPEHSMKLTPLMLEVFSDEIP

Sea lamprey VDR = biological target: T2, Sea lamprey VDR (Petromyzon marinus, UniProt Q7ZZY9)
T2 sequence (Q7ZZY9 92-406): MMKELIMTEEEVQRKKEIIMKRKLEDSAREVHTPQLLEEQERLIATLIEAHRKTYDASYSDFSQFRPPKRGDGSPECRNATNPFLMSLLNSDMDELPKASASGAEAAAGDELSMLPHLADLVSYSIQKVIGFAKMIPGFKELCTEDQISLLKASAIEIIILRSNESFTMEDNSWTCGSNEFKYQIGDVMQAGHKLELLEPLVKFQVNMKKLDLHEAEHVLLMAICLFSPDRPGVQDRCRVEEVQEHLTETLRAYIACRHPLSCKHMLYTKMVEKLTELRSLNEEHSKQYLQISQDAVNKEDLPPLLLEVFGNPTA

Zebrafish VDR = biological target: T3, Zebrafish VDR (Danio rerio, UniProt Q9PTN2); assay: luciferase reporter transactivation assay in HepG2-NTCP cells, GAL4/zfVDR LBD chimera with tk-UAS-Luc
T3 sequence (Q9PTN2 121-453): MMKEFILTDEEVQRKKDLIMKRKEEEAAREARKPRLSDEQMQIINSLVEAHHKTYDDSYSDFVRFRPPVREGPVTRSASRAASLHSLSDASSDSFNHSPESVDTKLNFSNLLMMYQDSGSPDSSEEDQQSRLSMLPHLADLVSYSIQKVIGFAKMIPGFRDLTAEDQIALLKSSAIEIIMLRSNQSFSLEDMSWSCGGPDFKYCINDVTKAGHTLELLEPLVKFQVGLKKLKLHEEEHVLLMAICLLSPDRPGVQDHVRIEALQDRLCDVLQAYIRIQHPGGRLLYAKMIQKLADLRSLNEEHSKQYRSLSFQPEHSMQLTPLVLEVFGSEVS

[1] = screening for activators, at least three concentrations of each drug

COc1c(O)ccc2c1CC[C@@H]1[C@@H]2CC[C@]2(C)C(=O)CC[C@@H]12 [4-Methoxyestrone]
No effect: Effect on Xenopus laevis VDR (Xenopus laevis VDR) | Effect on sea lamprey VDR (Sea lamprey VDR) | Effect on zebrafish VDR (Zebrafish VDR)

C[C@]12CCC(=O)C=C1CC[C@@H]1[C@@H]2CC[C@@]2(C)[C@H]1CC[C@]2(O)C(=O)CO [4-Pregnen-17,21-diol-3,20-dione]
No effect: Effect on Xenopus laevis VDR (Xenopus laevis VDR; [1]) | Effect on sea lamprey VDR (Sea lamprey VDR; [1]) | Effect on zebrafish VDR (Zebrafish VDR; [1])

CCCCCC=CCC=CCC=CCC=CCCCC(=O)O [5,8,11,14-Eicosatetranoic acid]
No effect: Effect on Xenopus laevis VDR (Xenopus laevis VDR; [1]) | Effect on sea lamprey VDR (Sea lamprey VDR; [1]) | Effect on zebrafish VDR (Zebrafish VDR; [1])

C[C@@]12C=CC[C@H]1[C@@H]1CC=C3C[C@@H](O)CC[C@]3(C)[C@H]1CC2 [5,16-Androstadien-3b-ol]
No effect: Effect on Xenopus laevis VDR (Xenopus laevis VDR; [1]) | Effect on sea lamprey VDR (Sea lamprey VDR; [1]) | Effect on zebrafish VDR (Zebrafish VDR; [1])

CC[C@@]1(O)CC[C@H]2[C@@H]3CC=C4C[C@@H](OS(=O)(=O)O)CC[C@]4(C)[C@H]3CC[C@@]21C [5-Pregnen-3b,17-diol 3-sulfate]
No effect: Effect on Xenopus laevis VDR (Xenopus laevis VDR; [1]) | Effect on sea lamprey VDR (Sea lamprey VDR; [1]) | Effect on zebrafish VDR (Zebrafish VDR; [1])

C[C@]12CC[C@@H](O)C[C@@H]1CC[C@@H]1[C@@H]2CC[C@]2(C)[C@@H](O)CC[C@@H]12 [5a-Androstan-3a,17b-diol]
No effect: Effect on Xenopus laevis VDR (Xenopus laevis VDR; [1]) | Effect on sea lamprey VDR (Sea lamprey VDR; [1]) | Effect on zebrafish VDR (Zebrafish VDR; [1])

C[C@@]12CCC[C@H]1[C@@H]1CC[C@H]3C[C@@H](O)CC[C@]3(C)[C@H]1CC2 [5a-Androstan-3b-ol]
No effect: Effect on Xenopus laevis VDR (Xenopus laevis VDR; [1]) | Effect on sea lamprey VDR (Sea lamprey VDR; [1]) | Effect on zebrafish VDR (Zebrafish VDR; [1])

CC(CO)CCC[C@@H](C)[C@H]1[C@H](O)C[C@H]2[C@@H]3[C@H](O)C[C@H]4C[C@H](O)CC[C@]4(C)[C@H]3CC[C@]12C (stereo partly drawn) [5a-Cholestan-3a,7a,16a,27-tetrol]
No effect: Effect on Xenopus laevis VDR (Xenopus laevis VDR; [1]) | Effect on sea lamprey VDR (Sea lamprey VDR; [1]) | Effect on zebrafish VDR (Zebrafish VDR; [1])

C[C@]12CC[C@@H](O)C[C@@H]1CC[C@@H]1[C@@H]2[C@@H](O)C[C@]2(C)[C@@H](C(=O)CO)CC[C@@H]12 [5a-Pregnan-3a,11b,21-triol-20-one]
No effect: Effect on Xenopus laevis VDR (Xenopus laevis VDR; [1]) | Effect on sea lamprey VDR (Sea lamprey VDR; [1]) | Effect on zebrafish VDR (Zebrafish VDR; [1])

C[C@]12CC[C@H](O)C[C@@H]1CC[C@@H]1[C@@H]2CC[C@]2(C)C(=O)CC[C@@H]12 [5a-androstan-3b-ol-17-one]
No effect: Effect on Xenopus laevis VDR (Xenopus laevis VDR; [1]) | Effect on sea lamprey VDR (Sea lamprey VDR; [1]) | Effect on zebrafish VDR (Zebrafish VDR; [1])

CC(C)CCC[C@@H](C)[C@H]1CC[C@H]2[C@@H]3CC[C@H]4C[C@@H](OS(=O)(=O)O)CC[C@]4(C)[C@H]3CC[C@]12C [5a-cholestan-3b-ol sulfate]
No effect: Effect on Xenopus laevis VDR (Xenopus laevis VDR; [1]) | Effect on sea lamprey VDR (Sea lamprey VDR; [1]) | Effect on zebrafish VDR (Zebrafish VDR; [1])

CC(O)C1CCC2C3CCC4CC(O)CCC4(C)C3CCC12C (stereo not drawn) [5a-pregnan-3a,20a-diol]
No effect: Effect on Xenopus laevis VDR (Xenopus laevis VDR; [1]) | Effect on sea lamprey VDR (Sea lamprey VDR; [1]) | Effect on zebrafish VDR (Zebrafish VDR; [1])

CC(=O)[C@H]1CC[C@H]2[C@@H]3CC[C@H]4C[C@H](O)CC[C@]4(C)[C@H]3CC[C@]12C [5a-pregnan-3a-ol-20-one]
No effect: Effect on Xenopus laevis VDR (Xenopus laevis VDR; [1]) | Effect on sea lamprey VDR (Sea lamprey VDR; [1]) | Effect on zebrafish VDR (Zebrafish VDR; [1])

C[C@]12CC[C@@H](O)C[C@H]1CC[C@@H]1[C@@H]2[C@@H](O)C[C@]2(C)C(=O)CC[C@@H]12 [5b-Androstan-3a,11b-17-one]
No effect: Effect on Xenopus laevis VDR (Xenopus laevis VDR; [1]) | Effect on sea lamprey VDR (Sea lamprey VDR; [1]) | Effect on zebrafish VDR (Zebrafish VDR; [1])

C[C@]12CC[C@@H](O)C[C@H]1CC[C@@H]1[C@@H]2C(=O)C[C@]2(C)C(=O)CC[C@@H]12 [5b-Androstan-3a-ol-11,17-one]
No effect: Effect on Xenopus laevis VDR (Xenopus laevis VDR; [1]) | Effect on sea lamprey VDR (Sea lamprey VDR; [1]) | Effect on zebrafish VDR (Zebrafish VDR; [1])

C[C@@]12CCC[C@H]1[C@@H]1CC[C@@H]3C[C@@H](O)CC[C@]3(C)[C@H]1CC2 [5b-Androstan-3b-ol]
No effect: Effect on Xenopus laevis VDR (Xenopus laevis VDR; [1]) | Effect on sea lamprey VDR (Sea lamprey VDR; [1]) | Effect on zebrafish VDR (Zebrafish VDR; [1])

C[C@H](CCCO)[C@H]1CC[C@H]2[C@@H]3[C@H](O)C[C@@H]4C[C@H](O)CC[C@]4(C)[C@H]3C[C@H](O)[C@]12C [5b-Cholan-3a,7a,12a,24-tetrol]
No effect: Effect on Xenopus laevis VDR (Xenopus laevis VDR; [1]) | Effect on sea lamprey VDR (Sea lamprey VDR; [1]) | Effect on zebrafish VDR (Zebrafish VDR; [1])

CCC[C@@H](C)[C@H]1CC[C@H]2[C@@H]3[C@H](O)C[C@@H]4C[C@H](O)CC[C@]4(C)[C@H]3C[C@H](O)[C@]12C [5b-Cholan-3a,7a,12a-triol]
No effect: Effect on Xenopus laevis VDR (Xenopus laevis VDR; [1]) | Effect on sea lamprey VDR (Sea lamprey VDR; [1]) | Effect on zebrafish VDR (Zebrafish VDR; [1])

C[C@H](CCC(=O)O)[C@H]1CC[C@H]2[C@@H]3C[C@H](O)[C@@H]4C[C@H](O)CC[C@]4(C)[C@H]3CC[C@]12C [5b-Cholanic acid-3a,6a-diol]
No effect: Effect on Xenopus laevis VDR (Xenopus laevis VDR; [1]) | Effect on sea lamprey VDR (Sea lamprey VDR) | Effect on zebrafish VDR (Zebrafish VDR; [1])

C[C@H](CCC(=O)O)[C@H]1CC[C@H]2[C@@H]3C[C@@H](O)[C@@H]4C[C@H](O)CC[C@]4(C)[C@H]3CC[C@]12C [5b-Cholanic acid-3a,6b-diol]
No effect: Effect on Xenopus laevis VDR (Xenopus laevis VDR; [1]) | Effect on sea lamprey VDR (Sea lamprey VDR) | Effect on zebrafish VDR (Zebrafish VDR; [1])

CC(=O)[C@H]1CC[C@H]2[C@@H]3CC[C@@H]4CC(=O)CC[C@]4(C)[C@H]3CC[C@]12C [5b-Pregnan-3,20-dione]
No effect: Effect on Xenopus laevis VDR (Xenopus laevis VDR; [1]) | Effect on sea lamprey VDR (Sea lamprey VDR; [1]) | Effect on zebrafish VDR (Zebrafish VDR; [1])

C[C@H](O)[C@H]1CC[C@H]2[C@@H]3CC[C@@H]4C[C@H](O)CC[C@]4(C)[C@H]3CC[C@]12C [5b-Pregnan-3a,20a-diol]
No effect: Effect on Xenopus laevis VDR (Xenopus laevis VDR; [1]) | Effect on sea lamprey VDR (Sea lamprey VDR; [1]) | Effect on zebrafish VDR (Zebrafish VDR; [1])

C[C@@H](O)[C@H]1CC[C@H]2[C@@H]3CC[C@@H]4C[C@H](O)CC[C@]4(C)[C@H]3CC[C@]12C [5b-Pregnan-3a,20b,diol]
No effect: Effect on Xenopus laevis VDR (Xenopus laevis VDR; [1]) | Effect on sea lamprey VDR (Sea lamprey VDR; [1]) | Effect on zebrafish VDR (Zebrafish VDR; [1])

CC(=O)[C@H]1CC[C@H]2[C@@H]3CC[C@@H]4C[C@H](O)CC[C@]4(C)[C@H]3CC[C@]12C [5b-Pregnan-3a-ol-20-one]
No effect: Effect on Xenopus laevis VDR (Xenopus laevis VDR; [1]) | Effect on sea lamprey VDR (Sea lamprey VDR; [1]) | Effect on zebrafish VDR (Zebrafish VDR; [1])

CC(C)CCC[C@@H](C)[C@H]1CC[C@H]2[C@@H]3CC[C@@H]4C[C@H](OS(=O)(=O)O)CC[C@]4(C)[C@H]3CC[C@]12C [5b-cholestan-3a-ol sulfate]
No effect: Effect on Xenopus laevis VDR (Xenopus laevis VDR; [1]) | Effect on sea lamprey VDR (Sea lamprey VDR; [1]) | Effect on zebrafish VDR (Zebrafish VDR; [1])

CC(=O)[C@H]1CC[C@H]2[C@@H]3CC[C@@H]4C[C@H](OS(=O)(=O)O)CC[C@]4(C)[C@H]3CC[C@]12C [5b-pregnan-3a-ol-20-one sulfate]
No effect: Effect on Xenopus laevis VDR (Xenopus laevis VDR; [1]) | Effect on sea lamprey VDR (Sea lamprey VDR; [1]) | Effect on zebrafish VDR (Zebrafish VDR; [1])

C[C@]12CC[C@H]3[C@@H](C[C@H](F)C4=CC(=O)CC[C@@]43C)[C@@H]1CC[C@@H]2O [6a-Fluorotestosterone]
No effect: Effect on Xenopus laevis VDR (Xenopus laevis VDR; [1]) | Effect on sea lamprey VDR (Sea lamprey VDR; [1]) | Effect on zebrafish VDR (Zebrafish VDR; [1])
